Assay results taken from PubChem BioAssay (NCI).
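All cell lines were grown in 96-well plates and treated with compound for 48 hours. GI50 marks 50% less growth. TGI: total growth inhibition.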

Columns and labels:
Assay in all cases: DTP human tumour cell line panel, 48 h
[1] = test system: LOX IMVI melanoma
[2] = test system: EKVX NSCLC
[3] = test system: OVCAR-5 ovarian
[4] = test system: ACHN renal
[5] = test system: RPMI-8226 leukemia
[6] = test system: HCT-15 colon
[7] = test system: SK-MEL-5 melanoma
[8] = test system: UACC-257 melanoma
[9] = test system: U251 CNS
[10] = test system: UACC-62 melanoma

Row | Structure (SMILES) | GI50 [1] | TGI [1] | GI50 [2] | TGI [2] | GI50 [3] | TGI [3] | GI50 [4] | TGI [4] | GI50 [5] | TGI [5] | GI50 [6] | TGI [6] | GI50 [7] | TGI [7] | GI50 [8] | TGI [8] | GI50 [9] | TGI [9] | GI50 [10] | TGI [10]
1 | COc1cccc(-n2ncc3c(N/N=C/c4ccc(C)cc4)ncnc32)c1 | > 25 µM | > 25 µM | > 25 µM | > 25 µM | > 25 µM | > 25 µM | > 25 µM | > 25 µM | > 25 µM | > 25 µM | > 25 µM | > 25 µM | > 25 µM | > 25 µM | > 21.7 µM | > 25 µM | > 25 µM | > 25 µM | > 25 µM | > 25 µM
2 | COC12C=C/C(=C(/C(=O)OCCSc3ccnn3C)C(=O)CCCCCCCCC3(OC)C=C/C(=C(/C(=O)OCCSc4ccnn4C)C(=O)CCCCCCCC1)O3)O2 | 0.573 µM | 1.18 µM | 1.15 µM | 12.1 µM | 1.73 µM | > 32.5 µM | 1.07 µM | > 32.5 µM | 0.895 µM | 2.65 µM | 1.08 µM | 4.39 µM | 0.581 µM | 1.09 µM | 1.35 µM | 11.4 µM | 0.979 µM | 3.32 µM | 0.716 µM | 1.85 µM
3 | c1ccc2cc(Cn3cc[n+](Cc4ccc5ccccc5c4)c3)ccc2c1 | 1.1 µM | 2.39 µM | 2.51 µM | 15.5 µM | 1.71 µM | 7.19 µM | 13.7 µM | 27.6 µM | 0.348 µM | 1.97 µM | 14.9 µM | 29.5 µM | 0.258 µM | 0.916 µM | 0.587 µM | 2.55 µM | 1.5 µM | 11 µM | 0.478 µM | 1.98 µM
4 | CCNc1cc2oc(=O)cc(C(F)(F)F)c2cc1C | – | > 100 µM | – | > 100 µM | – | > 100 µM | – | > 100 µM | – | > 100 µM | – | > 100 µM | – | > 100 µM | – | > 100 µM | – | > 100 µM | – | > 100 µM
5 | Cc1cn(CCC(N)C(=O)O)c(=O)[nH]c1=O (stereo not given) | – | > 100 µM | – | > 100 µM | – | > 100 µM | – | > 100 µM | – | > 100 µM | – | > 100 µM | – | > 100 µM | – | > 100 µM | – | > 100 µM | – | > 100 µM
6 | Cc1ccc(-c2c(C#N)[n+](=O)c3cc(F)c(F)cc3n2[O-])cc1 | > 100 µM | > 100 µM | 21.2 µM | 38.9 µM | 3.91 µM | 15.9 µM | 2.2 µM | 5.83 µM | 1.49 µM | 6.99 µM | 1.2 µM | 3.75 µM | 14.2 µM | 28.1 µM | 23.5 µM | 48.7 µM | 1.43 µM | 2.94 µM | 4.25 µM | 16.1 µM
7 | COC1(OC)C2(Cl)C(Cl)=C(Cl)C1(Cl)C1c3ccc(C(C)=O)c4cccc(c34)C12 (stereo not given) | – | > 100 µM | – | > 100 µM | – | > 100 µM | – | > 87.4 µM | – | > 100 µM | – | > 100 µM | – | 27.7 µM | – | > 100 µM | – | 99.9 µM | – | > 100 µM
